One assay concerns the target H3 receptors (Cavia porcellus, UniProt Q9JI35). The experiment in a line: Competitive binding, displacement of [3H]α-methylhistamine, PDSP. On the set-up: species or system guinea pig. Background: Displacement assays read how much labelled ligand stays bound in the presence of the test substance.
Another assay deals with H2R (Homo sapiens, UniProt P25021). As to the kind of experiment: Competitive binding, displacement of [3H]tiotidine, PDSP. As to conditions: human recombinant receptors expressed in HEK293T cells, read-out: Affinity (Ki, nM) H2.
A further assay has as its target H1R (Homo sapiens, UniProt P35367). As to the kind of experiment: Competitive binding, displacement of [3H]pyrilamine, PDSP. As to conditions: human recombinant receptors expressed in HEK293T cells, read-out: Affinity (Ki, nM) H1.
Assay [1] addresses cloned human H3 receptors. Also on record: method as in PMID 15634000. As to conditions: [3H]α-methylhistamine; membranes of C6 cells expressing cloned human H3 receptors; read-out: Affinity (Ki, nM) H3 (lit); cited from earlier work.
Where [2] appears, read: [3H]α-methylhistamine, guinea pig cells expressing H3 receptors, NIMH PDSP, read-out: Affinity (Ki, nM) H3.

Like-named read-outs stand apart in the source and are kept apart here.

Chain of H1R (P35367 whole entry): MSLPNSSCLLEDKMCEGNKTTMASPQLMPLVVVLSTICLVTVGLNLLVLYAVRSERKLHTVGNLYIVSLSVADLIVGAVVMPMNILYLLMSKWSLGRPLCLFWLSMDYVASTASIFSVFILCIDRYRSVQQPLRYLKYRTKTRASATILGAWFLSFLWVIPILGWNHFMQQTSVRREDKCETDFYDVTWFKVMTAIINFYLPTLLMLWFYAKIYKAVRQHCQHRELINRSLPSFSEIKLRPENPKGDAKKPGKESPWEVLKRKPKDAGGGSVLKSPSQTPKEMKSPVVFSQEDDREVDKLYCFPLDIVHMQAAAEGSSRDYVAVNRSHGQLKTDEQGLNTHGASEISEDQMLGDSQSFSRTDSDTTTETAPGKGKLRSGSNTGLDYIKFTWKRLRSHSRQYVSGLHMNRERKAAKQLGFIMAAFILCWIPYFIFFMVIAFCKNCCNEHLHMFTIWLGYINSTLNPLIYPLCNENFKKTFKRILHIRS
Chain of H2R (P25021 whole entry): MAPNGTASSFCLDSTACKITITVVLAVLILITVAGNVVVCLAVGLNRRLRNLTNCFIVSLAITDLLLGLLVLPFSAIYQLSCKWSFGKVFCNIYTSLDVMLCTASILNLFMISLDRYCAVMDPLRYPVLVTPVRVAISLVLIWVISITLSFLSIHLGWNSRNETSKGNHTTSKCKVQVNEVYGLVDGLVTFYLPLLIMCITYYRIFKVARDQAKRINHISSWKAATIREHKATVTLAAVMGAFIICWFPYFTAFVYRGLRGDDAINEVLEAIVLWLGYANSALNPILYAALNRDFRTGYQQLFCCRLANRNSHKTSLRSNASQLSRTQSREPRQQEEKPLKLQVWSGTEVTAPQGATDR
Chain of H3 receptors (Q9JI35 whole entry): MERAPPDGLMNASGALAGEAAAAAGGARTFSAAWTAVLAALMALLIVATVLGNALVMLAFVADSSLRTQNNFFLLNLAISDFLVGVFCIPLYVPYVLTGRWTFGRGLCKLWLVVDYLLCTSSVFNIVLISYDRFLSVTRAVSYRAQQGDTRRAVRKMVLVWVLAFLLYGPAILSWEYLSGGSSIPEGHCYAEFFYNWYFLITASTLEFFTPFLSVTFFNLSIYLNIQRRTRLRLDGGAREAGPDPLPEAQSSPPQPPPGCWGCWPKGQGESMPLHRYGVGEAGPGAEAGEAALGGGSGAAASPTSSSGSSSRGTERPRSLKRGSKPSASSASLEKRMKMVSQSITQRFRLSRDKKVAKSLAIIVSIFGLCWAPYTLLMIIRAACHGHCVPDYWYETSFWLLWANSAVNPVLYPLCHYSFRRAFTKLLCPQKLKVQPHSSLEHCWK

As usually defined, the Ki is a measure of affinity in units of concentration, obtained from inhibition or displacement. In the case of `C[C@@H]1CCCN1CCc1cc2cc(C(=O)c3ccc(F)cc3)ccc2o1` [Ligand 2], the values for the Ki at H3 receptors, at H2R and at H1R were 4.2 nM, 923 nM and 7050 nM, respectively.

With `C[C@@H]1CCCN1CCc1cc2cc(C(=O)c3cccc(F)c3)ccc2o1` [Ligand 3], the Ki at H3 receptors (setting [2]) was 4.9 nM; at H2R it was 1370 nM; at H1R, over 10000 nM; in assay [1], 0.1 nM.

Take `C[C@@H]1CCCN1CCc1cc2cc(C(=O)c3cc(F)cc(F)c3)ccc2o1` [Ligand 4, (R)-(3,5-Difluorophenyl)(2-(2-(2-methylpyrrolidin-1-yl)ethyl)benzofuran-5-yl)methanone]: the Ki was 2.9 nM at H3 receptors (setting [2]), 630 nM at H2R, over 10000 nM at H1R and 0.09 nM in assay [1].

With `C[C@@H]1CCCN1CCc1cc2cc(C(=O)c3ccc([N+](=O)[O-])cc3)ccc2o1` [Ligand 1], the values for the Ki on H3 receptors (setting [2]), on H2R and on H1R were 2.1 nM, 706 nM and 1030 nM, respectively.

The values above are taken from paper PMC5530730, “^11C-Labeling of Aryl Ketones as Candidate Histamine Subtype-3 Receptor PET Radioligands through Pd(0)-Mediated ^11C-Carbonylative Coupling” (Molecules : A Journal of Synthetic Chemistry and Natural …, 2017).
